According to patent publication US11607464B2, “Compositions and methods for the treatment and imaging of cancer” (BOARD OF REGENTS OF THE UNIVERSITY OF NEBRASKA, priority 2018, dated 2023):

Legend:
BE(2)-C = assay: Cell survival and LD50 determination (trypan blue exclusion); format: cell-based, human; details: value (std err)
Method: (§1) The final concentration of DMSO was maintained at ≤0.5% in all flasks including controls. With each treatment group, duplicate flasks of control cells were grown and harvested alongside treated cells. Each treatment was tested in duplicate in at least two independent experiments (n=4-6 per concentration). Cell numbers were determined after 1 hour, 24 hours, and 48 hours of exposure to drugs using the trypan blue exclusion assay. Aliquots of cell suspension were mixed with a 0.2% solution of trypan blue in PBS (1/1; v/v) and counted in Cellometer® (Nexcelom Bioscience, Lawrence, Mass.). […] The reproductive integrity was also evaluated using a clonogenic survival assay.

SK-N-SH = assay: as above; format: cell-based, human; details: value (std err)
Method: as §1

U-87 MG = assay: as above; format: cell-based, human; details: value (std err)
Method: as §1, with “Compounds 1 or 2 dissolved in DMSO were added to the appropriate cell culture medium in concentrations ranging from 0 μM to 1.5 μM. Higher concentrations were not evaluated as the amount of DMSO required to maintain the drugs' solubility was not compatible with good cell culture conditions. The final” for “The final”
(§2) Results Cell survival and LD50 determination for compounds 1 and 2 on four human cancer cell lines—BE(2)-C(neuroblastoma), SK-N-SH cells (neuroblastoma), U-87 MG (glioblastoma), and U137 MG.

U137 MG = assay: as above; format: cell-based, human; details: value (std err)
Method: as §1, with “Compounds 1 or 2 dissolved in DMSO were added to the appropriate cell culture medium in concentrations ranging from 0 μM to 1.5 μM. Higher concentrations were not evaluated as the amount of DMSO required to maintain the drugs' solubility was not compatible with good cell culture conditions. The final” for “The final”
as §2

[1] = test system: BE(2)-C neuroblastoma cells; assay: Cell survival with drug without and with ionizing radiation (XRT); format: cell-based, human
Method: (§3) Alongside all treatment groups, which included: drug alone (n=4), 4 Gy XRT alone (n=4), and drug+XRT (n=4), quadruplicate flasks of controls cells in medium containing DMSO were grown and harvested under identical culture conditions. Each treatment was tested in at least two independent experiments. The final concentration of DMSO was maintained at 0.5% in all flasks including controls. Cells grown in monolayers (50%-60% confluent) were irradiated at the dose of 4 Gy delivered at the dose rate of 1.36 Gy/minute in a Mark I 68A irradiator (J. L. Shepherd & Associates, San Fernando, Calif.). At designated times after treatment, cells were harvested, their numbers determined and plated at 200 and 500 live cells in duplicate or quadruplicate T25 flasks per each treatment. Cells were left undisturbed for ˜7 days after which time fresh medium was added and colonies were allowed to grow for up to 3 weeks. Colonies were washed with PBS, fixed with methanol, and stained with crystal violet. Briefly, colonies were washed with 5 mL ice-cold PBS, followed by 5 mL PBS/methanol (1:1; v/v), and fixed in 5 mL methanol for 10 minutes. Methanol was removed and flasks were left open to dry for a few hours. Crystal violet (3 mL; 0.25% in 1:1 PBS/methanol) was added to each flask to stain cells. After approximately 10 minutes, the dye was removed, flasks were rinsed with tap water followed by distilled water and were left to dry. Colonies were counted by two independent observers using the ImageJ software.

BE(2)-C cells = assay: Clonogenic survival (reproductive integrity) with drug without and with XRT; format: cell-based, human
Method: as §3

[2] = test system: human glioblastoma cells lines; assay: Cytotoxicity of the nonradioactive analogue; format: cell-based
Method: (§4) Cytotoxicity and radiosensitizing properties of the nonradioactive analogue were determined. Specifically, the cytotoxicity of the nonradioactive analogue N-[5-(3′-iodobenzoyl)-1H-benzimidazol-2-yl]carbamate was measured.

[3] = test system: human neuroblastoma cell lines; assay: Cytotoxicity of the nonradioactive analogue; format: cell-based
Method: as §4

[4] = Solubility in common solvents; format: physicochemical

Question: With `COC(=O)Nc1nc2cc(C(=O)c3cccc(I)c3)ccc2[nH]1` [Compound 2, Methyl N [5-(3′-iodobenzoyl)-1H-benzimidazol-2-yl]carbamate] as the compound, how does the LD50 (BE(2)-C) read?
Answer: 0.02 (0.01) uM

Question: And the LD50 (SK-N-SH)?
Answer: 1.29 (0.24) uM

Question: What about the LD50 (U-87 MG) of the same compound?
Answer: 0.20 (0.06) uM

Question: What about the LD50 (U137 MG) of the same compound?
Answer: 2.62 (1.35) uM

Question: What about the cancer cells surviving ([1]; 1 micromolar combined with 4 Gy ionizing radiation (XRT)) of the same compound?
Answer: 4.8%

Question: And the cancer cells killed ([1]; 1 micromolar, 24 hour exposure)?
Answer: 89.8%

Question: What about the “surviving fractions, cytotoxicity” value ([1]; SK-N-SH and BE(2)-C cells, 1 μM, without and with XRT, 24 hours after treatment, FIG. 8A) of the same compound?
Answer: very cytotoxic to the cancer cells, particularly in combination with irradiation

Question: What about the “clonogenic survival, cytotoxicity” value (BE(2)-C cells; BE(2)-C, 1 μM for 24 hours, without and with 4 Gy, FIGS. 8B and 8C) of the same compound?
Answer: very cytotoxic to the cancer cells, particularly in combination with irradiation

Question: What about the “cells surviving, reproductive integrity assay” value (BE(2)-C cells; combined treatment of 4 Gy XRT and drug) of the same compound?
Answer: < 0.9%

Question: What about the “cells surviving, reproductive integrity assay” value (BE(2)-C cells; drug alone) of the same compound?
Answer: 7.8%

Question: What about the cytotoxicity [2] of the same compound?
Answer: micromolar range

Question: What about the cytotoxicity [3] of the same compound?
Answer: low nM range

Question: And the “solubility in common solvents” value [4]?
Answer: quite low solubility
